For test [1], the target named is Cannabinoid receptor 1 (Homo sapiens, UniProt P21554). The experiment in a line: (§1) Radioligand Binding Assay: he affinity of the compounds of the invention for cannabinoid receptors was determined using recommended amounts of membrane preparations (PerkinElmer) of human embryonic kidney (HEK) cells expressing the human CNR1 or CNR2 receptors in conjunction with 1.5 or 2.6 nM [3H]-CP-55,940 (Perkin Elmer) as radioligand, respectively. Binding was performed in binding buffer (50 mM Tris, 5 mM MgCl2, 2.5 mM EDTA, and 0.5% (wt/vol) fatty acid free BSA, pH 7.4 for CB1 receptor and 50 mM Tris, 5 mM MgCl2, 2.5 mM EGTA, and 0.1% (wt/vol) fatty acid free BSA, pH 7.4 for CB2 receptor) in a total volume of 0.2 mL for 1 h at 30° C. shaking. The reaction was terminated by rapid filtration through microfiltration plates coated with 0.5% polyethylenimine (UniFilter GF/B filter plate; Packard). Bound radioactivity was analyzed for Ki using nonlinear regression analysis (Activity Base, ID Business Solution, Limited), with the Kd values for [3H]CP55,940 determined from saturation experiments.

Test [2] has as its target Cannabinoid receptor 2 (Homo sapiens, UniProt P34972). Described as §1.

One may read the Ki as a dissociation constant, usually derived from enzyme kinetics or from competition with a known ligand.

Sequence of Cannabinoid receptor 2 (P34972 whole entry): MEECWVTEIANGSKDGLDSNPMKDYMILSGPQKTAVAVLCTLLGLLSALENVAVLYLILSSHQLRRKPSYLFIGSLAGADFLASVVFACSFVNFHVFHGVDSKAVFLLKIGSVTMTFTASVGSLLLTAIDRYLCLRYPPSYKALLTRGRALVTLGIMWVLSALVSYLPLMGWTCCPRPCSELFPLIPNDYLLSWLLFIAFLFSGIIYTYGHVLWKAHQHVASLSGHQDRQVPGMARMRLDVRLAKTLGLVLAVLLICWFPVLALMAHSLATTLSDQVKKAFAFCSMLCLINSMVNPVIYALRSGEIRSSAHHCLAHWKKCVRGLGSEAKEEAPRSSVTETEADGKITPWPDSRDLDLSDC
Sequence of Cannabinoid receptor 1 (P21554 whole entry): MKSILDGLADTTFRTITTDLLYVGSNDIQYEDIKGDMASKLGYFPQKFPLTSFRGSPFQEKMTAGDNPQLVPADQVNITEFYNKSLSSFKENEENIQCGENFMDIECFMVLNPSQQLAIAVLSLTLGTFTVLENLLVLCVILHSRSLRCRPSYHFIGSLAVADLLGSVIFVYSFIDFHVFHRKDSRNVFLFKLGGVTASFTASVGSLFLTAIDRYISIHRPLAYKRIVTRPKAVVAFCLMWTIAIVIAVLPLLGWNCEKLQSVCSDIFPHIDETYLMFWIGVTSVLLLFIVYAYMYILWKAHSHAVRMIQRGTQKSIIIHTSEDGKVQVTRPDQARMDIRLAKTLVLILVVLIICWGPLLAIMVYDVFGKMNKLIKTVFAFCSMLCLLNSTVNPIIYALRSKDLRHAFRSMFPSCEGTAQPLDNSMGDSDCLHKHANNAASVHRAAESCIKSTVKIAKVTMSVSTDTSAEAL

`Cc1nonc1Cn1nnc2c(N3CC[C@@H](S)C3)nc(C(C)(C)C)nc21` (single isomer, unassigned): the Ki in test [1] turned out to be 8 µM; in test [2] it was 0.64 µM.

`CC(C)(C)c1nc(N2CCC(N=C=S)C2)c2nnn(Cc3ccccc3Cl)c2n1` (centres undefined): the Ki in test [1] came to 5.64 µM; in test [2], 1.36 µM.
